Reference: BindingDB's records for patent US12202835 (Beijing Scitech-Mq Pharmaceuticals, 2025)
pIC50: −log10 of the molar value.

Tests used:
Experiment in all cases: LANCE TR-FRET Assay
[1] = target: T1, Tyrosine-protein kinase Mer (Homo sapiens, UniProt Q12866)
T1 sequence (Q12866 whole entry): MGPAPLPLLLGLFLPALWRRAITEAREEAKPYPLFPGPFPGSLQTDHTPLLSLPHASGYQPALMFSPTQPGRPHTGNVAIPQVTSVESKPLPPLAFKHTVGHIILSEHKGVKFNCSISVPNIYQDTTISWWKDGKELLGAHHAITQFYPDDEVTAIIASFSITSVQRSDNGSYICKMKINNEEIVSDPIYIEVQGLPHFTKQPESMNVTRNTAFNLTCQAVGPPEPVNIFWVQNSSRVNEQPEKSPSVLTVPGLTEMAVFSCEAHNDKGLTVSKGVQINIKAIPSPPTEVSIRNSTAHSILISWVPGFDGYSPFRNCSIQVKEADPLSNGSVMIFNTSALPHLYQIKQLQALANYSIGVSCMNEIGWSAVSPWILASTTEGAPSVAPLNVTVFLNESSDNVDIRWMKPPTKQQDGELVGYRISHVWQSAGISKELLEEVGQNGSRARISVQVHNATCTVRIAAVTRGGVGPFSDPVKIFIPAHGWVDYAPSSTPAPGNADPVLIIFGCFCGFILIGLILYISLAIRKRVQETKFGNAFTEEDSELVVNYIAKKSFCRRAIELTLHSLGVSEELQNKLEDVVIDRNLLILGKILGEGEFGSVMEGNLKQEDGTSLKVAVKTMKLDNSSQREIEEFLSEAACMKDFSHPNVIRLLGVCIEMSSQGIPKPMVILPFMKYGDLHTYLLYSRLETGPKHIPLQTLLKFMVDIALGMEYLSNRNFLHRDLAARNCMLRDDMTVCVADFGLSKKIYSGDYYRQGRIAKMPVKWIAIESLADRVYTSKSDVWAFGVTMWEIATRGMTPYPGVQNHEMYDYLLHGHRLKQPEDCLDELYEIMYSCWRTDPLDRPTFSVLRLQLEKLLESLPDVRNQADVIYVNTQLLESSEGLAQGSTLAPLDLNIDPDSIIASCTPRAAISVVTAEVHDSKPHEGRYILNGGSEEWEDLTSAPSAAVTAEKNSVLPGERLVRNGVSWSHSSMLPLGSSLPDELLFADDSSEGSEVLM
Protocol: MER Kinase: The assay of small molecular compounds for inhibiting the activity of MER kinase is based on the LANCE TR-FRET technology of Perkin Elmer Inc., and the assay method is as follows:1. Dilution of compounds: a total of 11 concentrations were obtained using a 3-fold gradient dilution from the highest concentration of 2500 nM (the maximum final concentration of the drug used in this assay was 2500 nM, and the minimum final concentration was 0.042 nM).2. 2.5 μL of the gradient-diluted compounds were taken with a transfer pipette to a 384-well plate.3. Addition of enzyme: 5 μL of 2×MER kinase solution (with a concentration of 1 nM) was taken with a transfer pipette to the corresponding reaction well of the 384-well plate, mixed well and pre-reacted at room temperature for 5 minutes.4. 2.5 μL 4× ULight-labeled Ploy GT (with a concentration of 200 nM)/ATP (with a concentration of 20 μM) mixture was taken with a transfer pipette to the corresponding reaction well of the 384-well plate.5. Negative control: 2.5 μL/well 4× substrate/ATP mixture and 7.5 μL 1× Kinase Assay Buffer were added to the wells of the 384-well plate.Positive control: 2.5 μL/well 4× substrate/ATP mixture, 2.5 μL/well 1× Kinase Assay Buffer containing 4% DMSO, and 5 μL/well 2×MER kinase solution were added to the 384-well plate. The final concentration of DMSO in the reaction system was 1%.6. The mixture was mixed well and then centrifuged and reacted at room temperature in dark for 60 min.7. Termination of the enzymatic reaction: 5 μL of 4× stop solution was taken with a transfer pipette to the wells of the 384-well plate, mixed and then centrifuged, and reacted at room temperature for 5 min.8. Development of the reaction: 5 μL of 4× detection solution was taken with a transfer pipette to the wells of the 384-well plate for color development, and the mixture was mixed and then centrifuged and reacted at room temperature for 60 min.9. The 384-well plate was placed into the Envision plate reader and the signal was detected using the appropriate program.10. Analysis and processing of the raw data:The drug concentrations and the corresponding inhibition rates were input into GraphPad Prism5 for calculation, and the inhibition rate of the compounds were calculated as follows: inhibition rate (%)=(reading of positive well−reading of experimental well)/(reading of positive control well−reading of negative control well)×100%.

[2] = target: High affinity nerve growth factor receptor (Homo sapiens, UniProt P04629)
Sequence of High affinity nerve growth factor receptor (P04629 whole entry): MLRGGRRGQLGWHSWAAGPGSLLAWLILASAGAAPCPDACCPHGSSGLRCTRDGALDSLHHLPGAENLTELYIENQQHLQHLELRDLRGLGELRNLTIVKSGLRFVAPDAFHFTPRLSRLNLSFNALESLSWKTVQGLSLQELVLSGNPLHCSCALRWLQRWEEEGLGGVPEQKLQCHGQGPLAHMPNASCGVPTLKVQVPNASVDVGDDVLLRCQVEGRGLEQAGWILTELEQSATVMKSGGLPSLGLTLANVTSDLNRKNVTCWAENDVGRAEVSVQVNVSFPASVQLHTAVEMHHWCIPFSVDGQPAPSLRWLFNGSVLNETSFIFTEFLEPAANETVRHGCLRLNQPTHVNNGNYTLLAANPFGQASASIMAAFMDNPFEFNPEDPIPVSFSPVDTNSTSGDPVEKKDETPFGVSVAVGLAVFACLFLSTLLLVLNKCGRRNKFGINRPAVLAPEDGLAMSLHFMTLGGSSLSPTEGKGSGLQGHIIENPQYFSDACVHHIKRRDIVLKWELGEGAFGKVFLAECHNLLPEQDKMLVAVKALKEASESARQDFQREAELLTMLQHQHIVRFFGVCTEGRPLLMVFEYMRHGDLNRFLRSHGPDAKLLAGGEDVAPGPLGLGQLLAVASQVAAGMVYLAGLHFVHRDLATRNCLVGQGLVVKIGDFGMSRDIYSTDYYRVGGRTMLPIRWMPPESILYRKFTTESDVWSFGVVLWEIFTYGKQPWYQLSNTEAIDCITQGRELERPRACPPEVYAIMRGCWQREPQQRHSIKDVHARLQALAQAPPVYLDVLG
Protocol: TRKA Kinase: The assay of small molecular compounds for inhibiting the activity of TRKA kinase is based on the LANCE TR-FRET technology of Perkin Elmer Inc., and the assay method is as follows:1. […] 2.5 μL of the gradient-diluted compounds were taken with a transfer pipette to a 384-well plate.3. Addition of enzyme: 5 μL of 2×TRKA kinase solution (with a concentration of 2 nM) was taken with a transfer pipette to the corresponding reaction well of the 384-well plate, mixed well and pre-reacted at room temperature for 5 minutes.4. 2.5 μL 4× Ultra ULight-labeled TK Peptide (with a concentration of 400 nM)/ATP (with a concentration of 40 μM) mixture was taken with a transfer pipette to the corresponding reaction well of the 384-well plate.5. Negative control: 2.5 μL/well 4× substrate/ATP mixture and 7.5 μL 1× Kinase Assay Buffer were added to the wells of the 384-well plate.Positive control: 2.5 μL/well 4× substrate/ATP mixture, 2.5 μL/well 1× Kinase Assay Buffer containing 4% DMSO, and 5 μL/well 2×TRKA kinase solution were added to the 384-well plate. The final concentration of DMSO in the reaction system was 1%.6. The mixture was mixed well and then centrifuged and reacted at room temperature in dark for 60 min.7. Termination of the enzymatic reaction: 5 μL of 4× stop solution was taken with a transfer pipette to the wells of the 384-well plate, mixed and then centrifuged, and reacted at room temperature for 5 min.8. Development of the reaction: 5 μL of 4× detection solution was taken with a transfer pipette to the wells of the 384-well plate for color development, and the mixture was mixed and then centrifuged and reacted at room temperature for 60 min.9. The 384-well plate was placed into the Envision plate reader and the signal was detected using the appropriate program.10.

[3] = target: Hepatocyte growth factor receptor (Homo sapiens, UniProt P08581)
Sequence of Hepatocyte growth factor receptor (P08581 whole entry): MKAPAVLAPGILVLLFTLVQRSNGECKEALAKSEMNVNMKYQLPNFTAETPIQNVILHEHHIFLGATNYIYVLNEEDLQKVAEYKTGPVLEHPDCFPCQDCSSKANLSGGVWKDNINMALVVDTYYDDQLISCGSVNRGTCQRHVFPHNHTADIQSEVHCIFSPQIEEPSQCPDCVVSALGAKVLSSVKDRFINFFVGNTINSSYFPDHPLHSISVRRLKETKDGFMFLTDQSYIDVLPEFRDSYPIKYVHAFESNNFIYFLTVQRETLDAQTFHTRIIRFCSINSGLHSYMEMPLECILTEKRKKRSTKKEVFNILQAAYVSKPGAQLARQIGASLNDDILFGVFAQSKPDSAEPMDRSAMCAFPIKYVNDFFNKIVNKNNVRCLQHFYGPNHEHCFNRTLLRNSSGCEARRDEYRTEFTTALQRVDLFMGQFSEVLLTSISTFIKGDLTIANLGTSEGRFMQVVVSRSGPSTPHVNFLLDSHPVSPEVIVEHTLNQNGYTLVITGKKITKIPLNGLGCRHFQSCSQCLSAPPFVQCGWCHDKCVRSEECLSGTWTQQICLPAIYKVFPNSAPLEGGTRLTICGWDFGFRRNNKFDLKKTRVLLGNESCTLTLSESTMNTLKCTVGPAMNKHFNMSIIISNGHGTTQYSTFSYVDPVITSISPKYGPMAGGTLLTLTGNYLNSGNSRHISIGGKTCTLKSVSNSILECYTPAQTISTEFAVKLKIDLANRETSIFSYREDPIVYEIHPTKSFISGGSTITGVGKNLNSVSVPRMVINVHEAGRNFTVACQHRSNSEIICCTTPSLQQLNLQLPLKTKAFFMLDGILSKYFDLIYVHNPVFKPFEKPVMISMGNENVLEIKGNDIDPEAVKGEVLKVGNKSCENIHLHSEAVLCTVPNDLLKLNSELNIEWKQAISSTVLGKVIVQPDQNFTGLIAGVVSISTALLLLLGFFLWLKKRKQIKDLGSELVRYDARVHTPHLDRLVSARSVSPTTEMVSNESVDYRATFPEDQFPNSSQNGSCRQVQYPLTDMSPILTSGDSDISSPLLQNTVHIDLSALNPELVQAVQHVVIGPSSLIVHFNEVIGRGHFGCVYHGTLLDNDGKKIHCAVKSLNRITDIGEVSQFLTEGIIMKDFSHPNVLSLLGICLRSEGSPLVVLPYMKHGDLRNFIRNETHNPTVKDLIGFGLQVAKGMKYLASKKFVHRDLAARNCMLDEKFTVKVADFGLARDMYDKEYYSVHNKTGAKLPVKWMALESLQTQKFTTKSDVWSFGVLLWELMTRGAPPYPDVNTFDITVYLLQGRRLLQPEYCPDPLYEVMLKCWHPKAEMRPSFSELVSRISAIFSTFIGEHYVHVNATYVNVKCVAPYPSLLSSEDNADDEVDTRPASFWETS
Protocol: c-MET Kinase: The assay is based on the LANCE TR-FRET technology of Perkin Elmer Inc., and the assay method is as follows:1. Dilution of compounds: a total of 11 concentrations were obtained using a 3-fold gradient dilution from the highest concentration of 2500 nM (the maximum final concentration of the drug used in this assay was 2500 nM, and the minimum final concentration was 0.042 nM).2. 2.5 μL of the gradient-diluted compounds were taken with a transfer pipette to a 384-well plate.3. Addition of enzyme: 5 μL of 2×c-MET kinase solution (with a concentration of 2 nM) was taken with a transfer pipette to the corresponding reaction well of the 384-well plate, mixed well and pre-reacted at room temperature for 5 minutes.4. 2.5 μL 4× Ultra ULight™-JAK-1 (Tyr1023) Peptide (with a concentration of 400 nM)/ATP (with a concentration of 40 μM) mixture was taken with a transfer pipette to the corresponding reaction well of the 384-well plate.5. Negative control: 2.5 μL/well 4× substrate/ATP mixture and 7.5 μL 1× Kinase Assay Buffer were added to the wells of the 384-well plate.6. Positive control: 2.5 μL/well 4× substrate/ATP mixture, 2.5 μL/well 1× Kinase Assay Buffer containing 16% DMSO, and 5 μL/well 2× c-MET kinase solution were added to the 384-well plate. The final concentration of DMSO in the reaction system was 4%.7. The mixture was mixed well and then centrifuged and reacted at room temperature in dark for 60 min.8. Termination of the enzymatic reaction: 5 μL of 4× stop solution was taken with a transfer pipette to the wells of the 384-well plate, mixed and then centrifuged, and reacted at room temperature for 5 min.9. Development of the reaction: 5 μL of 4× detection solution was taken with a transfer pipette to the wells of the 384-well plate for color development, and the mixture was mixed and then centrifuged and reacted at room temperature for 60 min.10. The 384-well plate was placed into the Envision plate reader and the signal was detected using the appropriate program.11. Analysis and processing of the raw data:12. […]

[4] = target: Vascular endothelial growth factor receptor 2 (Homo sapiens, UniProt P35968)
Sequence of Vascular endothelial growth factor receptor 2 (P35968 whole entry): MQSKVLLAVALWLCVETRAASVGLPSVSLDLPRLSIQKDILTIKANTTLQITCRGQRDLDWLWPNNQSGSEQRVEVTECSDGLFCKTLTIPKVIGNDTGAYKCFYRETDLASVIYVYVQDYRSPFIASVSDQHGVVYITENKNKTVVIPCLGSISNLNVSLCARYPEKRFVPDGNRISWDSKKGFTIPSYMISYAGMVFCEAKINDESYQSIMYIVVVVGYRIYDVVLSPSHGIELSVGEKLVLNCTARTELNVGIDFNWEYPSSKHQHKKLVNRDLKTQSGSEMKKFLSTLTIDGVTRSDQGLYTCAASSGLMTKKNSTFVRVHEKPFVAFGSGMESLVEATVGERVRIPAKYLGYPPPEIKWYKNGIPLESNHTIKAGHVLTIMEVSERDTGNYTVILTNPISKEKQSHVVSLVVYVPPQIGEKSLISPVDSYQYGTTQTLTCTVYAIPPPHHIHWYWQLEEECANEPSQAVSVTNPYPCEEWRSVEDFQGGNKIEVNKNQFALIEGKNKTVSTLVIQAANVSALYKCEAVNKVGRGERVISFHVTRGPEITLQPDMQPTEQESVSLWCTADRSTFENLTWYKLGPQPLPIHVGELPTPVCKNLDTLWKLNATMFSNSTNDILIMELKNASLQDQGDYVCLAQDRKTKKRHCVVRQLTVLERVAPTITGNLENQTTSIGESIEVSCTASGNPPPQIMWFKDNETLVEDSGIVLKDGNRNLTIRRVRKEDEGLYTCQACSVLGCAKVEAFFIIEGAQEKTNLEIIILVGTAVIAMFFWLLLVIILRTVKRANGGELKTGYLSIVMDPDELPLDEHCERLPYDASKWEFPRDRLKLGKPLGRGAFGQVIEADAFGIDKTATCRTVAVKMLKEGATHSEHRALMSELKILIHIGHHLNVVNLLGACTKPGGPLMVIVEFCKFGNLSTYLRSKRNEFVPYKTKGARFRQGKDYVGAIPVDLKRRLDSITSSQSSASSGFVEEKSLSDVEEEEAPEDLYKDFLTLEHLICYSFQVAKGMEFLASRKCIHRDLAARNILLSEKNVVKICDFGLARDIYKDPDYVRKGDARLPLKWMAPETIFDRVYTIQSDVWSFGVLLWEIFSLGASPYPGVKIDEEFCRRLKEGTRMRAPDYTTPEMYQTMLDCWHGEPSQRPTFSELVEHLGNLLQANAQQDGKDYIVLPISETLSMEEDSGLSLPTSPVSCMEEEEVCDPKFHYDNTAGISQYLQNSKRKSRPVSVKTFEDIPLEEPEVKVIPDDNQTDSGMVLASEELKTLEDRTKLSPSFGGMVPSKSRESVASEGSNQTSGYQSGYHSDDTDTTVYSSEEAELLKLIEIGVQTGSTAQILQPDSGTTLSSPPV
Protocol: VEGFR-2 Kinase: The assay is based on the LANCE TR-FRET technology of Perkin Elmer Inc., and the assay method is as follows:1. Dilution of compounds: a total of 11 concentrations were obtained using a 3-fold gradient dilution from the highest concentration of 2500 nM (the maximum final concentration of the drug used in this assay was 2500 nM, and the minimum final concentration was 0.042 nM).2. 2.5 μL of the gradient-diluted compounds were taken with a transfer pipette to a 384-well plate.3. Addition of enzyme: 5 μL of 2×VEGFR2 kinase solution (with a concentration of 0.5 nM) was taken with a transfer pipette to the corresponding reaction well of the 384-well plate, mixed well and pre-reacted at room temperature for 30 minutes.4. 2.5 μL 4× Ultra ULight™-JAK-1 (Tyr1023) Peptide (with a concentration of 200 nM)/ATP (with a concentration of 40 μM) mixture was taken with a transfer pipette to the corresponding reaction well of the 384-well plate.5. Negative control: 2.5 μL/well 4× substrate/ATP mixture and 7.5 μL 1× Kinase Assay Buffer were added to the wells of the 384-well plate.6. Positive control: 2.5 μL/well 4× substrate/ATP mixture, 2.5 μL/well 1× Kinase Assay Buffer containing 16% DMSO, and 5 μL/well 2×VEGFR-2 kinase solution were added to the 384-well plate. […] The 384-well plate was placed into the Envision plate reader and the signal was detected using the appropriate program.11. […]

Measured: pIC50

CCOc1ccn(-c2ccc(F)cc2)c(=O)c1C(=O)Nc1ccc(Oc2ccnc3cc(OCCCCCCN(C)C)c4c(c23)OCCO4)c(F)c1 [US12202835, Example 60]
> 7.30: all assays above

CCOc1ccn(-c2ccc(F)cc2)c(=O)c1C(=O)Nc1ccc(Oc2ccnc3cc(OCCCN(C)C)c4c(c23)OCCO4)c(F)c1 [US12202835, Example 61]
> 7.30: all assays above

CC(C)n1cc(C(=O)Nc2ccc(Oc3ccnc4cc(OCCCCCCN(C)C)c5c(c34)OCCO5)c(F)c2)c(=O)n(-c2ccc(F)cc2)c1=O [US12202835, Example 85]
> 7.30: [1] | [2]

CN(C)CCCOc1cc2nccc(Oc3ccc(NC(=O)c4cn(C)c(=O)n(-c5ccc(F)cc5)c4=O)cc3F)c2c2c1OCCO2 [US12202835, Example 86]
> 7.30: [1] | [2] | [3]
